From PubChem BioAssay (NCI)
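Grown in 96-well plates, cells were treated for 48 hours with each compound at five concentrations. Insufficient inhibition: endpoint recorded as highest concentration tested. TGI is the concentration that stops growth completely.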

What was measured:
Assay in all cases: NCI-60 cell line screen, 48 h
786-0 renal = system: 786-0 renal
A498 renal = system: A498 renal
A549 NSCLC = system: A549 NSCLC
ACHN renal = system: ACHN renal
BT-549 breast = system: BT-549 breast
CAKI-1 renal = system: CAKI-1 renal
CCRF-CEM leukemia = system: CCRF-CEM leukemia
COLO 205 colon = system: COLO 205 colon
DU-145 prostate = system: DU-145 prostate
EKVX NSCLC = system: EKVX NSCLC
HCC-2998 colon = system: HCC-2998 colon
HCT-116 colon = system: HCT-116 colon
HCT-15 colon = system: HCT-15 colon
HOP-62 NSCLC = system: HOP-62 NSCLC
HOP-92 NSCLC = system: HOP-92 NSCLC
HT29 colon = system: HT29 colon
IGROV1 ovarian = system: IGROV1 ovarian
K-562 leukemia = system: K-562 leukemia
KM12 colon = system: KM12 colon
LOX IMVI melanoma = system: LOX IMVI melanoma
M14 melanoma = system: M14 melanoma
MALME-3M melanoma = system: MALME-3M melanoma
MCF7 breast = system: MCF7 breast
MDA-MB-231 breast = system: MDA-MB-231 breast
MDA-MB-435 = system: MDA-MB-435
MDA-N = system: MDA-N
MOLT-4 leukemia = system: MOLT-4 leukemia
NCI-H226 lung = system: NCI-H226 lung
NCI-H23 lung = system: NCI-H23 lung
NCI-H460 lung = system: NCI-H460 lung
NCI-H522 lung = system: NCI-H522 lung
NCI/ADR-RES ovarian = system: NCI/ADR-RES ovarian
OVCAR-3 ovarian = system: OVCAR-3 ovarian
OVCAR-4 ovarian = system: OVCAR-4 ovarian
OVCAR-5 ovarian = system: OVCAR-5 ovarian
OVCAR-8 ovarian = system: OVCAR-8 ovarian
PC-3 prostate = system: PC-3 prostate
RPMI-8226 leukemia = system: RPMI-8226 leukemia
RXF 393 renal = system: RXF 393 renal
SF-268 CNS = system: SF-268 CNS
SF-295 CNS = system: SF-295 CNS
SF-539 CNS = system: SF-539 CNS
SK-MEL-2 melanoma = system: SK-MEL-2 melanoma
SK-MEL-28 melanoma = system: SK-MEL-28 melanoma
SK-MEL-5 melanoma = system: SK-MEL-5 melanoma
SK-OV-3 ovarian = system: SK-OV-3 ovarian
SN12C renal = system: SN12C renal
SNB-19 CNS = system: SNB-19 CNS
SNB-75 CNS = system: SNB-75 CNS
SR leukemia = system: SR leukemia
SW-620 colon = system: SW-620 colon
T-47D breast = system: T-47D breast
TK-10 renal = system: TK-10 renal
U251 CNS = system: U251 CNS
UACC-257 melanoma = system: UACC-257 melanoma
UACC-62 melanoma = system: UACC-62 melanoma
UO-31 renal = system: UO-31 renal
HL-60(TB) leukemia = system: HL-60(TB) leukemia
HS 578T breast = system: HS 578T breast

## Cc1ccc(S(=O)(=O)c2[nH]cc(/C(=C\C3CCCCC3)[N+](=O)[O-])c2C2CCCCC2)cc1
786-0 renal
  TGI: 0.442 µM
A498 renal
  TGI: 0.837 µM
A549 NSCLC
  TGI: 6.59 µM
ACHN renal
  TGI: 0.619 µM
BT-549 breast
  TGI: 0.813 µM
CAKI-1 renal
  TGI: 0.531 µM
CCRF-CEM leukemia
  TGI: 0.991 µM
COLO 205 colon
  TGI: 0.602 µM
DU-145 prostate
  TGI: 1.49 µM
EKVX NSCLC
  TGI: 1.4 µM
HCC-2998 colon
  TGI: 0.485 µM
HCT-116 colon
  TGI: 0.468 µM
HCT-15 colon
  TGI: 0.46 µM
HOP-62 NSCLC
  TGI: 3.71 µM
HOP-92 NSCLC
  TGI: 3.99 µM
HT29 colon
  TGI: > 100 µM
IGROV1 ovarian
  TGI: 1.13 µM
K-562 leukemia
  TGI: 0.923 µM
KM12 colon
  TGI: 4.1 µM
LOX IMVI melanoma
  TGI: 0.439 µM
M14 melanoma
  TGI: 1.15 µM
MALME-3M melanoma
  TGI: 1.62 µM
MCF7 breast
  TGI: > 100 µM
MDA-MB-231 breast
  TGI: 0.515 µM
MDA-MB-435
  TGI: > 100 µM
MDA-N
  TGI: 0.968 µM
MOLT-4 leukemia
  TGI: 0.94 µM
NCI-H226 lung
  TGI: 9.9 µM
NCI-H23 lung
  TGI: 3.1 µM
NCI-H460 lung
  TGI: 2.99 µM
NCI-H522 lung
  TGI: 0.541 µM
NCI/ADR-RES ovarian
  TGI: 19.9 µM
OVCAR-3 ovarian
  TGI: 0.981 µM
OVCAR-4 ovarian
  TGI: 1.28 µM
OVCAR-5 ovarian
  TGI: 3.71 µM
OVCAR-8 ovarian
  TGI: 2.78 µM
PC-3 prostate
  TGI: 2.53 µM
RPMI-8226 leukemia
  TGI: 0.715 µM
RXF 393 renal
  TGI: 0.407 µM
SF-268 CNS
  TGI: 1.84 µM
SF-295 CNS
  TGI: > 20.6 µM
SF-539 CNS
  TGI: 2.46 µM
SK-MEL-2 melanoma
  TGI: 1.82 µM
SK-MEL-28 melanoma
  TGI: 2.75 µM
SK-MEL-5 melanoma
  TGI: 1.21 µM
SK-OV-3 ovarian
  TGI: > 26.9 µM
SN12C renal
  TGI: 0.49 µM
SNB-19 CNS
  TGI: 3.98 µM
SNB-75 CNS
  TGI: 5.81 µM
SR leukemia
  TGI: 0.891 µM
SW-620 colon
  TGI: 3.67 µM
T-47D breast
  TGI: 1.29 µM
TK-10 renal
  TGI: 2.08 µM
U251 CNS
  TGI: 4.56 µM
UACC-257 melanoma
  TGI: 1.2 µM
UACC-62 melanoma
  TGI: 0.625 µM
UO-31 renal
  TGI: 1.32 µM

## CCOC(=O)Nc1[nH]cc(-c2ccccc2)c1C#N
786-0 renal
  TGI: > 100 µM
A498 renal
  TGI: > 100 µM
A549 NSCLC
  TGI: > 100 µM
ACHN renal
  TGI: > 100 µM
CCRF-CEM leukemia
  TGI: > 100 µM
COLO 205 colon
  TGI: > 100 µM
DU-145 prostate
  TGI: > 100 µM
EKVX NSCLC
  TGI: > 100 µM
HCT-116 colon
  TGI: > 100 µM
HCT-15 colon
  TGI: > 100 µM
HL-60(TB) leukemia
  TGI: > 100 µM
HOP-62 NSCLC
  TGI: > 100 µM
HS 578T breast
  TGI: > 100 µM
HT29 colon
  TGI: > 100 µM
IGROV1 ovarian
  TGI: > 100 µM
K-562 leukemia
  TGI: > 100 µM
KM12 colon
  TGI: > 100 µM
LOX IMVI melanoma
  TGI: > 100 µM
M14 melanoma
  TGI: > 100 µM
MALME-3M melanoma
  TGI: > 100 µM
MCF7 breast
  TGI: > 100 µM
MDA-MB-231 breast
  TGI: > 100 µM
MDA-MB-435
  TGI: > 100 µM
MDA-N
  TGI: > 100 µM
MOLT-4 leukemia
  TGI: > 100 µM
NCI-H226 lung
  TGI: > 100 µM
NCI-H23 lung
  TGI: > 100 µM
NCI-H522 lung
  TGI: > 100 µM
NCI/ADR-RES ovarian
  TGI: > 100 µM
OVCAR-3 ovarian
  TGI: > 100 µM
OVCAR-4 ovarian
  TGI: > 100 µM
OVCAR-5 ovarian
  TGI: > 100 µM
OVCAR-8 ovarian
  TGI: > 100 µM
PC-3 prostate
  TGI: > 100 µM
RPMI-8226 leukemia
  TGI: > 100 µM
SF-268 CNS
  TGI: > 100 µM
SF-295 CNS
  TGI: > 100 µM
SK-MEL-2 melanoma
  TGI: > 100 µM
SK-MEL-28 melanoma
  TGI: > 100 µM
SK-MEL-5 melanoma
  TGI: > 100 µM
SK-OV-3 ovarian
  TGI: > 100 µM
SN12C renal
  TGI: > 100 µM
SNB-19 CNS
  TGI: > 100 µM
SNB-75 CNS
  TGI: > 100 µM
SR leukemia
  TGI: > 100 µM
SW-620 colon
  TGI: > 100 µM
TK-10 renal
  TGI: > 100 µM
U251 CNS
  TGI: > 100 µM
UACC-62 melanoma
  TGI: > 100 µM
UO-31 renal
  TGI: > 100 µM

## CC(=O)CCn1c(=S)sc2ccccc21
786-0 renal
  TGI: > 100 µM
A549 NSCLC
  TGI: > 100 µM
ACHN renal
  TGI: > 100 µM
BT-549 breast
  TGI: > 100 µM
CAKI-1 renal
  TGI: > 100 µM
CCRF-CEM leukemia
  TGI: > 100 µM
COLO 205 colon
  TGI: > 100 µM
DU-145 prostate
  TGI: > 100 µM
EKVX NSCLC
  TGI: > 100 µM
HCC-2998 colon
  TGI: > 100 µM
HCT-116 colon
  TGI: > 100 µM
HCT-15 colon
  TGI: > 100 µM
HL-60(TB) leukemia
  TGI: > 100 µM
HOP-62 NSCLC
  TGI: > 100 µM
HOP-92 NSCLC
  TGI: > 100 µM
HS 578T breast
  TGI: > 100 µM
HT29 colon
  TGI: > 100 µM
IGROV1 ovarian
  TGI: > 100 µM
KM12 colon
  TGI: > 100 µM
LOX IMVI melanoma
  TGI: > 100 µM
M14 melanoma
  TGI: > 100 µM
MCF7 breast
  TGI: > 100 µM
MDA-MB-231 breast
  TGI: > 100 µM
MDA-MB-435
  TGI: > 100 µM
MDA-N
  TGI: > 100 µM
MOLT-4 leukemia
  TGI: > 100 µM
NCI-H226 lung
  TGI: > 100 µM
NCI-H23 lung
  TGI: > 100 µM
NCI-H460 lung
  TGI: > 100 µM
NCI-H522 lung
  TGI: > 100 µM
NCI/ADR-RES ovarian
  TGI: > 100 µM
OVCAR-3 ovarian
  TGI: > 100 µM
OVCAR-4 ovarian
  TGI: > 100 µM
OVCAR-5 ovarian
  TGI: > 100 µM
OVCAR-8 ovarian
  TGI: > 100 µM
PC-3 prostate
  TGI: > 100 µM
RXF 393 renal
  TGI: > 100 µM
SF-268 CNS
  TGI: > 100 µM
SF-295 CNS
  TGI: > 100 µM
SF-539 CNS
  TGI: > 100 µM
SK-MEL-2 melanoma
  TGI: > 100 µM
SK-MEL-28 melanoma
  TGI: > 100 µM
SK-MEL-5 melanoma
  TGI: > 100 µM
SK-OV-3 ovarian
  TGI: > 100 µM
SN12C renal
  TGI: > 100 µM
SNB-19 CNS
  TGI: > 100 µM
SNB-75 CNS
  TGI: > 100 µM
SW-620 colon
  TGI: > 100 µM
TK-10 renal
  TGI: > 100 µM
U251 CNS
  TGI: > 100 µM
UACC-257 melanoma
  TGI: > 100 µM
UACC-62 melanoma
  TGI: > 100 µM
UO-31 renal
  TGI: > 100 µM
